In this test the test system is B16 murine melanocyte cell line. The test can be described thus: Production of melanin by B16 murine melanocyte cell line. In kind it is cell-based. The settings on record: B16 melanocytes, 72 hours; Kojic acid at 400 μg/mL. As for the experimental part: In order to evaluate the potential beneficial effect of ingredients towards skin de- or pro-pigmentation we used 2D culture of murine melanocytes (B16) and we performed 2 tests: 1—assessment of melanin production and 2—assessment of tyrosinase production.
1. The Cell Culture Conditions. • B16 cells were cultured in DMEM 1 g/L glucose without phenol red supplemented with 10% foetal calf serum, in a humidified chamber at 37° C. and containing 5% CO2.
2. The Production of Melanin by B16 Murine Melanocyte Cell Line. • Cells were incubated with the selected ingredients or the test references (Kojic acid at 400 μg/mL) for 72 hours, in the presence or absence of NDP-MSH an analog of MSH. The total quantity of melanin (extracellular and intracellular) was evaluated by measurement of the optical density at 405 nm of each sample against melanin standards in presence or in absence of NDP-MSH.
Caftaric acid has been pre-treated with La-1 [(spray dried culture Lactobacillus Johnsonii CNCM I-1225, 1.19E10 cfu/g) for 24 hours in a thermomixer at 40° C., under shaking conditions. After incubation, samples have been centrifuged 5 minutes at 3000 g. After this treatment the probiotic as such is not present anymore in the sample however the presence of its metabolites can't be excluded.

Turning to `O=c1cc(CO)occ1O` [Kojic acid], the “melanin production (in words)” value is “decrease in melanin production”.

The values above are taken from patent US9492416B2, “Use of caftaric acid and lactic bacterium in food supplement for regulating skin pigmentation” (Nestec S.A., priority 2010, dated 2016).
